ChEMBL document CHEMBL1138101, “Heteroaryl substituted bis-trifluoromethyl carbinols as malonyl-CoA decarboxylase inhibitors” (Bioorg Med Chem Lett, 2006)

Biological target: T1, Malonyl-CoA decarboxylase, mitochondrial (Homo sapiens, UniProt O95822)
T1 sequence (O95822 whole entry): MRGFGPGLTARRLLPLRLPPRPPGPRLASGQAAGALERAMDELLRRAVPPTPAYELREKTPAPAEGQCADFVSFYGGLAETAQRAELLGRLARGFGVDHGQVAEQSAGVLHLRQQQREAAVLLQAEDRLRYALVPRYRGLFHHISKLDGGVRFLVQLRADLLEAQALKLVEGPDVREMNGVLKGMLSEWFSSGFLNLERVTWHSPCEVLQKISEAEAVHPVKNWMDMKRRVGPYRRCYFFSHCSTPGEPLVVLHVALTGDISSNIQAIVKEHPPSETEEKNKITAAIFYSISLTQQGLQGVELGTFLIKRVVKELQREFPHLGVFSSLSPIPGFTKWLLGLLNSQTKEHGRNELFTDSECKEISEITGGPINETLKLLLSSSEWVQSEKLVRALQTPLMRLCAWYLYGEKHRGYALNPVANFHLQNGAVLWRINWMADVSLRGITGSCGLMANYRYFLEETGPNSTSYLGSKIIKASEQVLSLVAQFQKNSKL

IC50: 1580 nM
Compound: CC(C)C(=O)N(CC1CCCO1)c1ncc(C(O)(C(F)(F)F)C(F)(F)F)s1 (stereo unspecified)
